Read-outs that look alike come from different tables or passages of the source.
Columns and labels:
[1] = system: 3D7-strain P. falciparum asexual parasites; experiment: P. falciparum asexual growth inhibition assay (Pf GIA); format: cell-based, Plasmodium falciparum; details: dose response confirmation; read-out: Pf asexual growth inhibition assays IC50
Protocol: The asexual activity of active compounds was tested in dose response with parasite lactate dehydrogenase (LDH) activity used as a readout of parasite viability as described in [Gamo et al. (2010)]. Briefly, 3D7-strain P. falciparum asexual parasites were diluted to 0.25% parasitemia, 2% hematocrit in culture medium composed of RPMI medium with 25 mM HEPES, 2% D-sucrose, 0.3% L-glutamine, 150 μM hypoxanthine plus 5% albumax. 25 μl of parasite inoculum was then dispensed into each well of a 384 well plate containing test compounds and positive (50 μM chloroquine) and negative (DMSO) controls. Plates were incubated for 72 h at 37°C in a 5% CO2, 5%O2, 90% N2 environment before being frozen at −70°C. Plates were then thawed and 70 μl of reaction mix (143 mM sodium L-lactate, 143 mM 3-acetyl pyridine adenine dinucleotide, […] Nitro Blue tetrazolium chloride, […] diaphorase (2.83 U/ml), 0.7% Tween 20, 100 mM Tris–HCl pH 8.0) was added to each well using a Multidrop Combi automated dispenser. Plates were shaken to mix and then absorbance at 650 nm was measured after 10 min incubation at room temperature. Percent inhibition of asexual growth was then calculated with respect to positive and negative controls. Data presented is the mean of three independent biological replicates.

[2] = system: P. berghei ookinete development; details: for % inhibition, Replicate A / % inhibition, Replicate B: primary screen at 1 μM
HepG2 cells = experiment: HepG2 cytotoxicity assay; details: for IC50: read-out: HepG2 cytotoxicity assay IC50, dose response confirmation
Protocol: Briefly, HepG2 cells were seeded onto compound-treated 384 well plates at a density of 2,500 cells per well in Minimal Essential Medium (MEM) plus 10% fetal bovine serum and 1% non-essential amino acids solution (NEAA). Cells were incubated with test compounds or 50 μM doxorubicin (positive) and DSMO (negative) controls at 37°C for 48 h in a humidified 5% CO2 atmosphere. […] Cell viability was then measured in a fluorescent plate reader and percent inhibition calculated with respect to positive and negative controls.

[3] = read-out: Pb Ookinete development assay IC50, dose response confirmation

Row | SMILES | % inhibition, Replicate A [2] [%] | % inhibition, Replicate B [2] [%] | further results
1 | Cc1[nH]c(C)c(-c2ccc(Nc3ccc(C(F)(F)F)cn3)cc2)c(=O)c1Br [TCMDC-135546] | 85.12 | 90.38 | IC50 [1]: 14 nM; Is compound selective in assay? Pb ODA active? [2]: 1 (key: 1: YES; 0: NO); IC50 [2, 3]: 5.45 nM; Pb ODA (this manuscript) HepG2 cytoxicity (HepG2 cells; HepG2 cytotoxicity listed with the Pb ODA data set (this manuscript)): 0.98 µM; IC50 (HepG2 cells): 980 nM
2 | Cc1nc(C)c(-c2ccc(Oc3ccc(Cl)cc3Cl)cc2)c(O)c1Br [TCMDC-137533] | 69.44 | 92.36 | IC50 [1]: 165 nM; IC50 [2, 3]: 203 nM
3 | FC(F)(F)c1ccc(Nc2nnnc3ccccc23)cc1 [TCMDC-125603] | 80.24 | 96.04 | IC50 [1]: 9 nM; IC50 [2, 3]: 1260 nM
4 | COc1ccc2nccc([C@@H](O)CN3CCC(NCc4cc5cccc6c5n(c4=O)CCC6)CC3)c2c1.O=C(O)C(=O)O [TCMDC-140735] | 13.85 | 52.08 | Is compound selective in assay? Pb ODA active? ([2]; 1: YES, 0: NO): 0 (0: NO); IC50 ([2]; read-out: Pb ODA IC50, this manuscript): 3430 nM; IC50 [2, 3]: 3430 nM; IC50 (HepG2 cells): 16200 nM; Unified cytotox (HepG2 cells; unified HepG2 value across the three screens): 16.22 µM
5 | COc1ccc2nccc(N3CCC(NCCNCc4ccc5c(n4)NC(=O)CS5)C3)c2n1.Cl (stereo not shown) [TCMDC-134649] | 18.73 | 51.52 | 
6 | CCN(CC)CCCC(C)Nc1c2ccc(Cl)cc2nc2ccc(OC)cc12.Cl.O (stereo not shown) [TCMDC-125480] | 33.29 | 58.69 | 
7 | Cc1[nH]c(C)c(-c2ccc(Oc3cccc(Cl)c3)cc2)c(=O)c1Cl [TCMDC-137395] | 115.83 | 119.38 | 
8 | Cl.O=C(CC1CCCC1)N(CC1CCN(Cc2ccc(C(F)(F)F)cc2)CC1)c1ccc(N2CCOCC2)c(F)c1 [TCMDC-135855] | 65.53 | 32.88 | 
9 | CC(C)(CN)c1nc(-c2ccc(Cl)c(O)c2)c(-c2ccnc(N)n2)[nH]1 [TCMDC-141019] | 10.20 | 56.84 | IC50 [1]: 863 nM; IC50 [2, 3]: 1720 nM
10 | COc1ccc(-c2cc(C(=O)Nc3ccc4[nH]c(-c5ccccc5)nc4c3)[nH]n2)cc1.O=C(O)C(F)(F)F [TCMDC-134399] | 46.43 | 56.04 | 
11 | COc1cc(NCCCNC(=O)c2cc3c(Cl)cc(Cl)cc3[nH]2)nc2ccccc12 [TCMDC-140360] | 57.79 | 39.97 | 
12 | CCCC(CC)n1ccc2c3c(N)nc(N)nc3ccc21.CS(=O)(=O)O (stereo not shown) [TCMDC-137948] | 49.24 | 73.56 | 
13 | Cc1ccc(-c2noc(COc3ccccc3C(=O)NC3CCCC3)n2)cc1 [TCMDC-124748] | 70.37 | 89.43 | 
14 | CC(C)c1cccc(C(C)C)c1NC(=O)NNC(=O)c1ccc(CCN2CCC(c3nc(COCC(F)(F)F)c(-c4ccc(F)cc4)o3)CC2)cc1 [TCMDC-131908] | 61.66 | 23.60 | 
15 | CCN1CCN(CCCNc2c3ccc(Cl)cc3nc3ccc(OC)cc23)CC1.Cl [TCMDC-137586] | 79.33 | 90.04 | 
16 | NS(=O)(=O)c1cncc(-c2ccc3nccc(-c4cn[nH]c4)c3n2)c1 [TCMDC-134293] | 59.71 | 54.48 | IC50 [1]: 283 nM; IC50 [2, 3]: 2160 nM
17 | CCc1cc2c3c(N)nc(N)nc3ccc2n1C(CC)CC [TCMDC-137309] | 48.79 | 56.84 | 
18 | Cl.Nc1nc(N)c2c(ccc3nn(Cc4cccnc4)cc32)n1 [TCMDC-137968] | 30.53 | 62.42 | 
19 | CCc1ccc(NC(=O)c2ccc(CN3CCCN(CC4CCCCC4)CC3)cc2)cc1.O=C(O)C(F)(F)F [TCMDC-136437] | 48.61 | 52.92 | 
20 | N#Cc1cc([N+](=O)[O-])ccc1-n1nc(-c2cccc(Cl)c2)n(Cc2ccco2)c1=S [TCMDC-134717] | 64.43 | 77.59 | 
21 | CC(C)(C)c1ccc(Cc2cccc3nc(N)nc(N)c23)cc1 [TCMDC-137821] | 61.67 | 24.79 | 
22 | O=C(NCc1cccs1)[C@H](Cc1ccccc1)Nc1ccnc(NCC2CCCCC2)n1.O=C(O)C(F)(F)F [TCMDC-134708] | 21.89 | 53.00 | 
23 | CCOC(=O)c1cc2c(CCN3C(=O)c4ccccc4C3=O)cn(C)c2cc1-c1ccncc1 [TCMDC-138099] | 54.94 | 51.34 | 

Row | SMILES | % inhibition, Replicate A [2] [%] | % inhibition, Replicate B [2] [%] | further results
24 | COc1ccc2c(=O)c(-c3ccc(OC(F)(F)F)cc3)c(C)[nH]c2c1 [TCMDC-138811] | 34.78 | 69.73 | 
25 | O=C(CSc1nn(-c2ccccc2)c(=S)s1)c1c[nH]c2ccccc12 [TCMDC-124894] | 61.81 | 32.04 | 
26 | Cl.N=C(N)NN=Cc1cc2ccccc2c2ccccc12 [TCMDC-137671] | 63.22 | 44.77 | 
27 | CN(Cc1ccccc1)C1CCN(c2cc(NC(=O)c3cccc(F)c3)ccn2)CC1.O=C(O)C(F)(F)F [TCMDC-135000] | 52.34 | 57.11 | 
28 | CN1CCC(C(=O)Nc2ccc(-c3cccc(-c4nc5cc(F)ccc5[nH]4)c3)cc2)CC1 [TCMDC-132180] | 7.14 | 53.61 | 
29 | Cc1cc(-c2ccc(NC(=O)Nc3ccc4nccc(N5CCN(C)CC5)c4c3)cc2C)cc(C)n1.Cl [TCMDC-139355] | 53.36 | 17.60 | 
30 | O=C(Nc1ccccc1O)c1ccc(S(=O)(=O)c2ccc(Cl)cc2)cc1 [TCMDC-123689] | 23.88 | 50.54 | 
31 | O=c1cc(NCCCN(Cc2cc3c(Cl)cc(Cl)cc3[nH]2)Cc2cc3c(Cl)cc(Cl)cc3[nH]2)[nH]c2ccccc12 [TCMDC-139849] | 64.98 | 20.87 | 
32 | Cc1nc2ccccc2c(O)c1-c1ccc(Cl)cc1 [TCMDC-137172] | 27.10 | 52.76 | 
33 | CC1Cc2ccccc2N1S(=O)(=O)c1cc(OCC(F)(F)F)ccc1OCC(F)(F)F (stereo not shown) [TCMDC-124044] | 52.34 | 21.81 | 
34 | COc1ccc(O)c(Cc2cnc3nc(N)nc(N)c3c2C)c1.O=C(O)C(F)(F)F [TCMDC-137998] | 11.48 | 55.44 | 
35 | CC(CO)(CO)NCc1cc2ccc3ccsc3c2c2ccccc12.CS(=O)(=O)O [TCMDC-137753] | 48.80 | 68.87 | 
36 | Cc1ccc(CN2CCC(C(=O)Nc3ccc(-c4cc5ccccc5[nH]4)cc3)CC2)o1 [TCMDC-124634] | 35.55 | 65.49 | 
37 | Cc1nc2nc(N)nc(N)c2c(C)c1Cc1ccccc1I.Cl [TCMDC-137243] | 8.94 | 52.96 | 
38 | COc1ccc2nccc([C@@H](O)CN3CCC(NC(=O)Cc4cccc5c(Br)cccc45)CC3)c2c1 [TCMDC-141111] | 36.89 | 51.52 | 
39 | COc1ccc2nccc(C(=O)NC3CCC(CCN4CCc5cc(C#N)ccc5C4)CC3)c2c1.Cl (stereo not shown) [TCMDC-139240] | 53.92 | 18.69 | 
40 | Cc1[nH]c(C)c(-c2cccc(-c3ccc(OC(F)(F)F)cc3)c2)c(=O)c1Br [TCMDC-135303] | 52.85 | 65.81 | 
41 | O=C(NCCCN1CCN(c2cccc(Cl)c2)CC1)c1ccc(-c2nc3cc(Cl)c(Cl)cc3[nH]2)cc1 [TCMDC-140077] | 61.66 | 14.32 | 
42 | Cc1cccc2nc(-c3ccc(-c4cccc(CN5CCCC(N)C5)c4)s3)[nH]c12.O=C(O)C(F)(F)F (stereo not shown) [TCMDC-133874] | 50.71 | 12.43 | 
43 | COc1cc(OC)cc(C(=O)Nc2ccc(Nc3nc(C)cc(N(C)C)n3)cc2)c1 [TCMDC-124726] | 52.96 | 25.99 | 
44 | CCC[C@@H]([C@@H](CC1CCCCC1)C(=O)N[C@H](C(=O)Nc1nccs1)C(C)(C)SC)N(O)C=O [TCMDC-138113] | 7.94 | 61.12 | 
45 | CC(C)n1c(C(C)(C)C)cc2c3c(N)nc(N)nc3ccc21 [TCMDC-137311] | 95.58 | 90.85 | IC50 [2, 3]: 634 nM

— paper PMC6753678, “Fueling Open Innovation for Malaria Transmission-Blocking Drugs: Hundreds of Molecules Targeting Early Parasite Mosquito Stages” (Frontiers in Microbiology, 2019)
